The results in this text go back to patent publication US7179821B2, “Method of treating of demyelinating diseases or conditions” (Aventis Pharmaceuticals Inc., priority 2001, dated 2007).

Assay [1] has as its system mechanical hyperalgesia after nerve ligation. The assay can be described thus: Neuropathic pain model, spinal nerve constriction, von Frey paw withdrawal threshold. Type of assay: in vivo, rat. The following applies: 20 mg/kg po, tested 3 hours after dosing. How it is done:
Adult male Sprague-Dawley rats received unilateral constriction of the L6 nerve to produce chronic nerve injury. Following recovery from surgery (3–7 days post operative) animals were tested for paw withdrawal threshold to mechanical stimuli applied to the affected paw. This was determined by the application of calibrated von Frey monofilaments to the plantar surface of each hindpaw. Only animals with a 50% decrease in withdrawal threshold in the ligated paw were employed in the study, and were randomly assigned to one of 6 groups: three groups receiving one of three doses of HP 184 (0.3, 3 and 20 mg/kg, po), a fourth group receiving a single dose of another compound referred to MDL (10 mg/kg, ip), a fifth group receiving gabapentin (90 mg/kg, sc), and a sixth group receiving vehicle only. Behavioral testing occurred 45 minutes following the gabapentin (90 mg/kg, sc), and 3 hours following the HP 184, MDL, and vehicle. A difference score between the ligated and non-ligated paw withdrawal thresholds is calculated for each animal, and these differences were subjected to ANOVA with group as the main factor. […] Analysis was between/within repeated measures ANOVA. […]

In assay [2] the test system is spinal cord crush-induced motor impairments. The assay can be described thus: Acute treatment after moderate spinal cord crush (1.4 mm), Open Field Walking Scale. Type of assay: in vivo, rat.
In another assay the test system is mouse pMCAO stroke model. The assay can be described thus: Mouse pMCAO stroke model, infarct volume. Type of assay: in vivo. Conditions: −60 min (one hour prior to occlusion), infarct volume 24 hours later, vs vehicle treated mice. The method, then:
Methods: The experimental procedure was based on the method of Bachauβ et al (1992). Male CD-1 mice weighing 35–40 g were anaesthetized with chloral hydrate (400 mg/kg). Under an operating microscope, a 3 mm vertical skin incision was made 2 mm behind the right orbit. The temporal muscle was deflected and a small craniotomy carried out to expose the dura. The dura was incised and deflected and the distal part of the right […] exposed. The artery was occluded upstream to the main bifurcation by bipolar electroagulation with fine forceps. Infarct volume was measured 24 hours later using 2% triphenyltetrazolium chloride solution. In this experimental paradigm, HP 184 was orally administered to non-fasted mice (10 per group) one hour prior to occlusion. Infarct volume reduction was based on comparison to 1% acetic acid, vehicle, treated mice.

Assay [3] concerns moderate chronic (35 days post-injury) spinal cord crush. Nature of the assay: Long standing moderate spinal cord crush (35 days), OFT score. Type of assay: in vivo, rat. From the text:
A tabular representation of the results from both chronic spinal cord injury studies (drugs first administered 25 days after a mild spinal cord crush and 35 days after a moderate spinal cord crush) are shown in Table 5.
One hundred fifty adult female Wistar rats, 250–300 g weight, obtained from Charles River were housed in the McMaster University Health Sciences Centre (HSC) Central Animal Facilities (CAF) for at least one week. During that time they were exposed to the performance tests described below, to ensure they were familiar with them. Rats were handled daily for 2 weeks prior to surgery.
Rats were anesthetized using isoflurane (3–5%): O2 (1 L/min) in an appropriately equipped surgical suite in the CAF. Temgesic (0.03 mg/kg body weight, subcutaneously (SQ)) was administered prior to surgery for pain relief. Spinal cords were crushed (compressed) with a 3.5 mm wide modified coverslip forceps (Blight 1991, procedure revised by Rathbone laboratory). The forceps were closed to 1.4 mm for 15 sec, which produced injury level equivalent to the mid-level (moderate) outcome on the Gruner scale (1996). The compression injury was otherwise performed according to the procedure described by Blight (1991).
Changes in locomotor behaviour and segmental reflexes were assessed up to 5 weeks post injury. Animals were tested in an open field walking task, hind limb placement and foot orientation. The animals were evaluated on days 2, 7, 14, 21, 28 and 35 after surgery. By 35 days after surgery, almost no further spontaneous recovery occurs. Therefore treatment began on day 35.
HP184 was dissolved in sterilized (autoclaved) deionized reverse-osmosis water acidified with glacial acetic acid (0.1 ml acid per 10 ml of water). 4-AP (Sigma, molecular weight 94.12; Jankowska E. et al., 1982; Gruner et al., 1999) was dissolved in physiological saline (0.6 mg/kg b.w.) and was administered by i.p. injection. One group of rats (vehicle control-1) received by oral gavage vehicle. Behaviourial testing was done immediately prior to receiving the gavage and at 3 hours thereafter. Then, the rats were scarified on day 35. All the other rats received either HP184 by oral gavage (0.3, 1, or 3 mg/kg bw depending on the group) or 4-AP (0.6 mg/kg, i.p.) or vehicle (vehicle control-2) once a day on the 35 to 42 days after surgery. On these days behaviourial tests were done immediately prior to receiving the gavage at 3 and 24 hours thereafter. Then, the rats were perfused on day 43 after the last behaviourial testing.
Statistical analyses were performed on a Macintosh computer using GB-Stat ppc 6.5.2. The behavioral scores were analyzed by the Kruskal-Wallis nonparametric analysis of variance (ANOVA). Post hoc comparisons were made using Mann-Whitney U tests.

The test system is the same in assay [4]. The description is as above. Conditions: 3 mg/kg po, thirty-five days after moderate injury, single dose then daily for 4 more days. Type of assay: in vivo, rat.
Assay [5] relates to photothrombotic cerebral lesion. Nature of the assay: Edema after photothrombotic cerebral lesion in the rat. The assay is classed as in vivo. How it is done:
Method: Male Sprague Dawley rats (180–200 g bw) were anaesthetized with chloral hydrate (400 mg/kg ip) and placed in a stereotaxic apparatus. The skin was opened to reveal the skull and a cold light (Bioblock 150 W) was placed in contact with the right side of the skull forward of lambda. Bengal rose dye (10 mg/kg iv in saline) was administered intravenously and illumination of the skull started immediately and continued for 5 minutes. The skin was then sutured closed over the skull and the animal returned to its cage. Twenty-four hours after the photothrombotic lesion animals received HP184 made up in 1% tween in water by intravenous route at 0, 10 or 20 mg/kg body weight in a volume of 5 ml/kg. One hour later, animals were killed by decapitation and their brains removed (see appendix for protocol). Core samples were taken at the site of the lesion, and contralateral to the lesion, using a 6 mm diameter cork borer. Water content was determined by wet weight of tissue/dry weight of tissue and edema expressed as % excess water on lesioned sample compared with sample from contralateral hemisphere for each rat.

The structures appear in SMILES notation. Values joined by “and” are separate entries in the source; they are usually repeats but may differ in a detail not shown here. Equal entries are not always repeated. Marks after values point to notes of the source that are not given here.

For the compound `CCCN(c1ccncc1F)n1cc(C)c2ccccc21` [HP184, N-(3-fluoro-4-pyridinyl)-N-propyl-3-methyl-1H-indole-1-amine], the “mechanical hyperalgesia, difference of ligated minus normal paw withdrawal threshold, FIG. 10” value in assay [1] is “dose-response attentuation of L5 ligation mechanical hyperlagesia”. Further, the “rate and extent of improvement of OFT score” value in assay [2] (20 and 5 mg/kg ip within 15 minutes of crush, repeated days 2 and 3, FIG. 2) was “significantly different from vehicle treated rats”; in assay [2] (po 5–10 minutes prior to crush, then once a day days 2 and 3, vs vehicle treated group, FIG. 3), “improved for all doses”. Also, the “% infarct volume reduction mean sem” value was 21 ± 3% in the assay on mouse pMCAO stroke model (1 mg/kg po); 40 ± 2.5 % and 32 ± 11 % with mouse pMCAO stroke model (10 mg/kg po). Further, the “recovery of locomotor function, comparison of the doses” value in assay [3] (3 mg/kg po vs 0.3 and 1 mg/kg, days 35–42) is recorded as “produced the best recovery of locomotor function”. In addition, the “% possible improvement, moderate” value in assay [3] (3 mpk po) was determined as 24.8%*. Moreover, the “Delta of OFT score, Day 35 to Day 39 (moderate)” value in assay [3] (3 mpk po) is given as “.274”. Moreover, in assay [3] (3 mpk po daily), the “OFT score Day 39 (moderate) 3 hrs after last dose” value is on record as 4.17 ± .058. In assay [3] (HP184 0.3, 1 or 3 mg/kg po or 4-AP 0.6 mg/kg ip once a day, days 35–42, treatment effect p<0.01), the “open field locomotor ability (mean OFT scores) vs vehicle, FIGS. 6a and 6b” value was “significantly different from that of control animals receiving vehicle”. Besides, the “OFT score Day 35 (moderate) prior” value in assay [3] (group 3 mpk po, baseline before dosing) is reported as 3.89 ± .054. In addition, the “motor recovery, Open Field Walking Test” value in assay [4] was “improves motor recovery after a single dose”. The entries for the “edema (% excess water) at 25 h post lesion” value in assay [5] (10 mg/kg iv at 24 h post lesion) and in assay [5] (20 mg/kg iv at 24 h post lesion) were 3.61 ± 0.23 ns % excess water and 3.20 ± 0.27 % excess water, respectively. The “reduction of the edema in the right cerebral cortex” value in assay [5] (20 mg/kg iv, one hour after administration, 25 hours after lesion) is on record as 22%.
